In patent US12466806B2, “2-substituted imidazolidine derivative containing aryl bipyridyloxy structure and preparation method and use thereof” (NANTONG UNIVERSITY, priority 2020, dated 2025):

Tested on: Mythimna separata
Assay: Screening of insecticidal activity against Mythimna separata, leaf soaking method (IRAC)
Format: in vivo
Conditions: concentration 500 μg/mL; 3rd instar larvae on soaked corn leaves; investigated after 48 h; 24-27° C.
Protocol: Screening of Insecticidal Activity of Compounds Against Mythimna separate
Adopting the leaf soaking method proposed by the International Resistance Action Committee (IRAC): the test target is Mythimna separata, e.g. the appropriate amount of corn leaves was fully infiltrated in the prepared liquid and then dried naturally in the shade, and placed in a petri dish with a filter paper. The 3rd instar larvas of Mythimna separata were added 10 heads per dish, cultured in the observation room at 24-27° C., and the results were investigated after 48 h. Using a brush to touch the body of the Mythimna separata, if there is no response, it is regarded as a dead insect. The test concentration is 500 μg/mL (the other concentrations of the drug solution can be obtained by diluting the drug solution with the concentration of 500 μg/mL).

Row | SMILES | death rate % Mythimna separata [%]
1 | O=[N+]([O-])/N=C1\NCCN1Cc1ccc(Oc2ccc(F)cc2)nc1 [I a] | 100
2 | O=[N+]([O-])/N=C1\NCCN1Cc1ccc(Oc2ccc(Cl)cc2)nc1 [I b] | 100
3 | O=[N+]([O-])/N=C1\NCCN1Cc1ccc(Oc2ccc(Br)cc2)nc1 [I c] | 80
4 | O=[N+]([O-])/N=C1\NCCN1Cc1ccc(Oc2ccccc2)nc1 [I d] | 100
5 | O=[N+]([O-])/N=C1\NCCN1Cc1ccc(Oc2ccc(Cl)cc2Cl)nc1 [I e] | 100
6 | O=[N+]([O-])/N=C1\NCCN1Cc1ccc(Oc2cccc(F)c2F)nc1 [I f] | 100
